Patent US9597310B2, “Indanyloxydihydrobenzofuranylacetic acids” (Boehringer Ingelheim International GmbH, priority 2012, dated 2017)

Molecular target: human GPR40 receptor (Homo sapiens (Human), UniProt O14842)
Assay: IP1 accumulation measurements using the IPOne assay system
Assay type: cell-based
Details: 1321N1 cells stably expressing human GPR40 receptor, 1 h stimulation
Method: IP1 accumulation measurements using the IPOne assay system—1321N1 cells stably expressing human GPR40 receptor (Euroscreen, Belgium) are seeded 24 h before the assay in white 384-well plates in culture medium containing 10% FCS, 1% Na-Pyruvate and 400 μg/mL G418. IP1 is assayed according to the manufacturer's description (Cisbio Bioassays, France). In brief, the assay is started by substitution of the culture medium by stimulation buffer (Hepes 10 mM, CaCl2 1 mM, MgCl2 0.5 mM, KCl 4.2 mM, NaCl 146 mM, glucose 5.5 mM and LiCl 50 mM, pH 7.4). Cells are stimulated for 1 h at 37° C., 5% CO2 by addition of the compounds that are diluted in stimulation buffer containing LiCl. Assays are stopped by adding HTRF-conjugates (IP1-d2 and Anti-IP1 cryptate Tb) and lysis buffer, provided by the manufacturer. After an incubation time of 1 h at room temperature plates are measured using an EnVision™, Perkin Elmer. The obtained fluorescence ratios at 665/615 […] are then used to calculate the pEC50 values using Assay Explorer 3.3 Software (Accelrys, Inc.) by interpolation using an IP1 reference curve and subsequent sigmoidal curve fitting allowing for a variable hill slope.

human GPR40 receptor, sequence (O14842 whole entry): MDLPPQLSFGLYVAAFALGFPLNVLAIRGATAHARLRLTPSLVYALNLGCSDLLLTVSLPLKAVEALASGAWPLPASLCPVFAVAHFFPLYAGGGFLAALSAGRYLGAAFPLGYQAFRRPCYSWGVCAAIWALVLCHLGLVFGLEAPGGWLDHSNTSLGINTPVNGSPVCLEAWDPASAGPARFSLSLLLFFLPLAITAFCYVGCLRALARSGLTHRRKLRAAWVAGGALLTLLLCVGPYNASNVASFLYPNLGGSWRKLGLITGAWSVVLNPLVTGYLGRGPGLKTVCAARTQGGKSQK

Row | SMILES | EC50 [nM]
1 | CS(=O)(=O)CCCOc1ccc(Oc2ccc(F)c3c2CC[C@H]3Oc2ccc3c(c2)OC[C@H]3CC(=O)O)cc1 [Example 4, [(S)-6-{(R)-7-Fluoro-4-[4-(3-methanesulfonyl-propoxy)-phenoxy]-indan-1-yloxy}-2,3-dihydro-benzofuran-3-yl)-acetic acid] | 15
2 | O=C(O)C[C@@H]1COc2cc(O[C@@H]3CCc4c(Oc5ccc(CN6CCOCC6)cc5)ccc(F)c43)ccc21 [Example 5, {(S)-6-[(R)-7-Fluoro-4-(4-morpholin-4-ylmethyl-phenoxy)-indan-1-yloxy]-2,3-dihydro-benzofuran-3-yl}-acetic acid] | 25
3 | CC(=O)NCc1cccc(Oc2ccc(F)c3c2CC[C@H]3Oc2ccc3c(c2)OC[C@H]3CC(=O)O)c1 [Example 7, [(S)-6-{(R)-4-[3-(Acetylamino-methyl)-phenoxy]-7-fluoro-indan-1-yloxy}-2,3-dihydro-benzofuran-3-yl]-acetic acid] | 55
4 | CC(=O)Nc1ccc(Oc2ccc(F)c3c2CC[C@H]3Oc2ccc3c(c2)OC[C@H]3CC(=O)O)cc1 [Example 8, {(S)-6-[(R)-4-(4-Acetylamino-phenoxy)-7-fluoro-indan-1-yloxy]-2,3-dihydro-benzofuran-3-yl}-acetic acid] | 34
5 | O=C(O)C[C@@H]1COc2cc(O[C@@H]3CCc4c(Oc5ccc(-n6ccnc6)cc5)ccc(F)c43)ccc21 [Example 10, {(S)-6-[(R)-7-Fluoro-4-(4-imidazol-1-yl-phenoxy)-indan-1-yloxy]-2,3-dihydro-benzofuran-3-yl}-acetic acid] | 11
6 | O=C(O)C[C@@H]1COc2cc(O[C@@H]3CCc4c(Oc5ccc(-c6nnn[nH]6)cc5)ccc(F)c43)ccc21 [Example 13, [(S)-6-{(R)-7-Fluoro-4-[4-(1H-tetrazol-5-yl)-phenoxy]-indan-1-yloxy}-2,3-dihydro-benzofuran-3-yl]-acetic acid] | 282
7 | Cn1nnnc1-c1ccc(Oc2ccc(F)c3c2CC[C@H]3Oc2ccc3c(c2)OC[C@H]3CC(=O)O)cc1 [Example 14, [(S)-6-{(R)-7-Fluoro-4-[4-(1-methyl-1H-tetrazol-5-yl)-phenoxy]-indan-1-yloxy}-2,3-dihydro-benzofuran-3-yl]-acetic acid] | 23
8 | Cn1nnc(-c2ccc(Oc3ccc(F)c4c3CC[C@H]4Oc3ccc4c(c3)OC[C@H]4CC(=O)O)cc2)n1 [Example 15, [(S)-6-{(R)-7-Fluoro-4-[4-(2-methyl-2H-tetrazol-5-yl)-phenoxy]-indan-1-yloxy}-2,3-dihydro-benzofuran-3-yl]-acetic acid] | 3
9 | O=C(O)C[C@@H]1COc2cc(O[C@@H]3CCc4c(Oc5ccnc(O[C@H]6CCOC6)c5)ccc(F)c43)ccc21 [Example 16, {(S)-6-[(R)-7-fluoro-4-{2-[(S)-tetrahydro-furan-3-yloxy]-pyridin-4-yloxy}-indan-1-yloxy]-2,3-dihydro-benzofuran-3-yl}-acetic acid] | 9
10 | CC(C)(O)CCOc1ccc(Oc2ccc(F)c3c2CC[C@H]3Oc2ccc3c(c2)OC[C@H]3CC(=O)O)nc1 [Example 17, [(S)-6-{(R)-7-Fluoro-4-[5-(3-hydroxy-3-methyl-butoxy)-pyridin-2-yloxy]-indan-1-yloxy}-2,3-dihydro-benzofuran-3-yl]-acetic acid] | 23
11 | O=C(O)C[C@@H]1COc2cc(O[C@@H]3CCc4c(Oc5ccc(O[C@H]6CCOC6)cn5)ccc(F)c43)ccc21 [Example 18, {(S)-6-[(R)-7-Fluoro-4-{5-[(S)-tetrahydro-furan-3-yloxy}-pyridin-2-yloxy}-indan-1-yloxy]-2,3-dihydro-benzofuran-3-yl}-acetic acid] | 31
12 | CS(=O)(=O)CCCOc1c(F)cc(Oc2ccc(F)c3c2CC[C@H]3Oc2ccc3c(c2)OC[C@H]3CC(=O)O)cc1F [Example 19, [(S)-6-{(R)-4-[3,5-Difluoro-4-(3-methanesulfonyl-propoxy)-phenoxy]-7-fluoro-indan-1-yloxy}-2,3-dihydro-benzofuran-3-yl]-acetic acid] | 12
13 | CC(C)(O)Cn1cc(-c2c(F)cc(Oc3ccc(F)c4c3CC[C@H]4Oc3ccc4c(c3)OC[C@H]4CC(=O)O)cc2F)cn1 [Example 20, {(S)-6-[(R)-4-{3,5-Difluoro-4-[1-(2-hydroxy-2-methyl-propyl)-1H-pyrazol-4-yl]-phenoxy}-7-fluoro-indan-1-yloxy]-2,3-dihydro-benzofuran-3-yl}-acetic acid] | 7
14 | O=C(O)C[C@@H]1COc2cc(O[C@@H]3CCc4c(Oc5ccc(-c6nccs6)cc5)ccc(F)c43)ccc21 [Example 21, {(S)-6-[(R)-7-Fluoro-4-(4-thiazol-2-yl-phenoxy)-indan-1-yloxy]-2,3-dihydro-benzofuran-3-yl}-acetic acid] | 6
15 | Cc1ncc(-c2ccc(Oc3ccc(F)c4c3CC[C@H]4Oc3ccc4c(c3)OC[C@H]4CC(=O)O)cc2)s1 [Example 22, [(S)-6-{(R)-7-Fluoro-4-[4-(2-methyl-thiazol-5-yl)-phenoxy]-indan-1-yloxy}-2,3-dihydro-benzofuran-3-yl]-acetic acid] | 5
16 | CC(C)(O)CCCc1ccc(Oc2ccc(F)c3c2CC[C@H]3Oc2ccc3c(c2)OC[C@H]3CC(=O)O)nc1 [Example 23, [(S)-6-{(R)-7-Fluoro-4-[5-(4-hydroxy-4-methyl-pentyl)-pyridin-2-yloxy]-indan-1-yloxy}-2,3-dihydro-benzofuran-3-yl]-acetic acid] | 84
17 | O=C(O)C[C@@H]1COc2cc(O[C@@H]3CCc4c(Oc5ccc6c(c5)NC(=O)CC6)ccc(F)c43)ccc21 [Example 24, {(S)-6-[(R)-7-Fluoro-4-(2-oxo-1,2,3,4-tetrahydroquinoline-7-yloxy)-indan-1-yloxy]-2,3-dihydrobenzofuran-3-yl}-acetic acid] | 10
18 | O=C(O)C[C@@H]1COc2cc(O[C@@H]3CCc4c(Oc5ccc6c(c5)OCO6)ccc(F)c43)ccc21 [Example 25, {(S)-6-[(R)-4-(Benzo[d][1,3]dioxol-5-yloxy)-7-fluoro-indan-1-yloxy]-2,3-dihydrobenzofuran-3-yl}-acetic acid] | 6
19 | O=C(O)C[C@@H]1COc2cc(O[C@@H]3CCc4c(Oc5ccc6c(c5)OCCO6)ccc(F)c43)ccc21 [Example 26, {(S)-6-[(R)-4-(2,3-Dihydrobenzo[b][1,4]dioxin-6-yloxy)-7-fluoro-indan-1-yloxy]-2,3-dihydrobenzofuran-3-yl}-acetic acid] | 6
20 | O=C(O)C[C@@H]1COc2cc(O[C@@H]3CCc4c(Oc5ccc(C6CCOCC6)cc5)ccc(F)c43)ccc21 [Example 27, ((S)-6-{(R)-7-Fluoro-4-[4-(tetrahydro-2H-pyran-4-yl)phenoxy]-indan-1-yloxy}-2,3-dihydrobenzofuran-3-yl)-acetic acid] | 9
21 | CC(C)(O)CCCc1ccc(Oc2ccc(F)c3c2CC[C@H]3Oc2ccc3c(c2)OC[C@H]3CC(=O)O)cc1 [Example 28, ((S)-6-{(R)-7-Fluoro-4-[4-(4-hydroxy-4-methylpentyl)phenoxy]-indan-1-yloxy}-2,3-dihydrobenzofuran-3-yl)-acetic acid] | 20
22 | CC(C)(O)Cn1cc(-c2cc(F)c(Oc3ccc(F)c4c3CC[C@H]4Oc3ccc4c(c3)OC[C@H]4CC(=O)O)cc2F)cn1 [Example 29, [(S)-6-((R)-4-{2,5-Difluoro-4-[1-(2-hydroxy-2-methylpropyl)-1H-pyrazol-4-yl]phenoxy}-7-fluoro-indan-1-yloxy)-2,3-dihydrobenzofuran-3-yl]-acetic acid] | 12
23 | CC(C)(O)CCn1ncc2cc(Oc3ccc(F)c4c3CC[C@H]4Oc3ccc4c(c3)OC[C@H]4CC(=O)O)ccc21 [Example 30, ((S)-6-{(R)-7-Fluoro-4-[1-(3-hydroxy-3-methylbutyl)-1H-indazol-5-yloxy]-indan-1-yloxy}-2,3-dihydrobenzofuran-3-yl)-acetic acid] | 13
24 | CC(C)(O)Cn1cc(-c2cc(F)c(Oc3ccc(F)c4c3CC[C@H]4Oc3ccc4c(c3)OC[C@H]4CC(=O)O)c(F)c2)cn1 [Example 31, [(S)-6-((R)-4-{2,6-Difluoro-4-[1-(2-hydroxy-2-methylpropyl)-1H-pyrazol-4-yl]phenoxy}-7-fluoro-indan-1-yloxy)-2,3-dihydrobenzofuran-3-yl]-acetic acid] | 58
25 | Cc1nc(-c2ccc(Oc3ccc(F)c4c3CC[C@H]4Oc3ccc4c(c3)OC[C@H]4CC(=O)O)cc2)cs1 [Example 32, ((S)-6-{(R)-7-Fluoro-4-[4-(2-methylthiazol-4-yl)phenoxy]-indan-1-yloxy}-2,3-dihydrobenzofuran-3-yl)-acetic acid] | 13
26 | CC(C)(O)CCOc1cc(F)c(Oc2ccc(F)c3c2CC[C@H]3Oc2ccc3c(c2)OC[C@H]3CC(=O)O)cc1F [Example 34, ((S)-6-{(R)-4-[2,5-Difluoro-4-(3-hydroxy-3-methylbutoxy)phenoxy]-7-fluoro-indan-1-yloxy}-2,3-dihydrobenzofuran-3-yl)-acetic acid] | 6
27 | O=C(O)C[C@@H]1COc2cc(O[C@@H]3CCc4c(Oc5ccc(CC6CCOCC6)cc5)ccc(F)c43)ccc21 [Example 35, [(S)-6-((R)-7-Fluoro-4-{4-[(tetrahydro-2H-pyran-4-yl)methyl]phenoxy}-indan-1-yloxy)-2,3-dihydrobenzofuran-3-yl]-acetic acid] | 5
28 | CC(C)(O)CCn1ncc2ccc(Oc3ccc(F)c4c3CC[C@H]4Oc3ccc4c(c3)OC[C@H]4CC(=O)O)cc21 [Example 36, ((S)-6-{(R)-7-Fluoro-4-[1-(3-hydroxy-3-methylbutyl)-1H-indazol-6-yloxy]-indan-1-yloxy}-2,3-dihydrobenzofuran-3-yl)-acetic acid] | 8
